# Source: US20210292807A1, “METHOD FOR TESTING ANTIMICROBIAL SUSCEPTIBILITY” (priority 2017, published 2021)
# Where “and” joins values, the source holds several entries; their conditions need not be identical. Equal values may be shown once.
# System: Klebsiella isolates
# Assay: Broth microdilution MIC (MICBMD) of Klebsiella isolates
# Type: cell-based, Klebsiella pneumoniae, Klebsiella oxytoca
# Procedure: An aliquot of bacterial suspension was added to 50 mL centrifuge tubes (Corning, N.Y.) containing 9 mL of pre-warmed (37° C.) filtered MHB to produce a final density of 5×10^5-1×10^6 bacteria per mL. This suspension was incubated at 37° C. with shaking at 100 RPM for 30 minutes to obtain an actively dividing culture. An aliquot of antibiotic working solution from the previously described dilution series (appropriate to the concentration tested) was then added to each tube before a further 30-minute incubation with shaking, during which time a microbroth dilution (MBD) plate was prepared for overnight incubation at 37° C. as previously described in Clinical and Laboratory Standards Institute (2015) Performance Standards for Antimicrobial Susceptibility Testing: Informational Supplement. CLSI document M100-S25. Clinical and Laboratory Standards Institute, 950, West Valley Road, Suite 2500, Wayne, Pa., 19087, USA.
# FIG. 2 outlines the work flow as exemplified herein. In brief, an isolate was retrieved from cryopreservation, plated onto blood agar to ensure purity, and inoculated into trypticase soy broth (TSB, described above) overnight to simulate biological fluids. A 1 mL aliquot of this overnight suspension was inoculated into Mueller-Hinton broth (MHB) [comprising about 300.0 g beef extract (dehydrated infusion from), about 17.5 g casein hydrolysate, about 1.5 g starch, reconstituted in about 1 L of water, pH 7.3±0.1 as measured and kept at 25° C.] and incubated at 37° C. to ensure bacteria were actively dividing. One aliquot was subjected to traditional microbroth dilution (MBD) susceptibility testing.
# [1] = K. pneumoniae isolate 18397, biological replicates
# [2] = K. pneumoniae isolate 43292, biological replicates
# [3] = K. pneumoniae isolate 43358, biological replicates
# [4] = K. pneumoniae isolate 44271, biological replicates
# [5] = K. pneumoniae isolate ATCC 700603, biological replicates
# [6] = K. pneumoniae isolate ATCC BAA1705, biological replicates
# [7] = K. pneumoniae isolate K1, biological replicates
# [8] = K. pneumoniae isolate K14, biological replicates
# [9] = isolate 3000770, England, NDM-1
# [10] = isolate 3040820, England, pAmpC
# [11] = isolate ATCC BAA 1705, USA, KPC
# [12] = isolate K16, Australia, IMP - 4
# [13] = isolate K23, Australia, IMP - 4
# [14] = isolate KS1, Sri Lanka, OXA-181
# [15] = isolate KS17, Sri Lanka, OXA-181
compound,measurement,setting,value
C[C@@H](O)[C@H]1C(=O)N2C(C(=O)O)=C(S[C@@H]3CN[C@H](C(=O)N(C)C)C3)[C@H](C)[C@H]12 [meropenem],MICBMD,"K. pneumoniae ATCC 700603 (carbapenem susceptible control), limited clinical screen concentrations",≤0.25
same,MICBMD,"K. pneumoniae ATCC BAA1705 (carbapenem resistant control), limited clinical screen concentrations",>16
same,BMD S/NS,[1],S (S: MIC ≤2 mg/L)
same,MICBMD,[1],≤0.25 mg/L
same,BMD S/NS,[2],S (S: MIC ≤2 mg/L)
same,MICBMD,[2],≤0.25 mg/L
same,BMD S/NS,[3],S (S: MIC ≤2 mg/L)
same,MICBMD,[3],≤0.25 mg/L
same,BMD S/NS,[4],S (S: MIC ≤2 mg/L)
same,MICBMD,[4],0.5 mg/L
same,BMD S/NS,[5],S (S: MIC ≤2 mg/L)
same,MICBMD,[5],≤0.25 mg/L
same,BMD S/NS,[6],NS (NS: MIC >2 mg/L)
same,MICBMD,[6],16 mg/L
same,BMD S/NS,[7],NS (NS: MIC >2 mg/L)
same,MICBMD,[7],32 mg/L (2×) and 64 mg/L
same,BMD S/NS,[8],NS (NS: MIC >2 mg/L)
same,MICBMD,[8],256 mg/L
same,MICBMD,"K. pneumoniae isolate KS1, biological replicates",4 mg/L and 2 mg/L (2×)
same,MICBMD,"K. pneumoniae isolate KS11, biological replicates",2 mg/L and 4 mg/L (2×)
same,MBD S/NS,"isolate 194, Sweden, VIM",NS (NS = MIC >2 mg/L)
same,MICBMD,"isolate 194, Sweden, VIM",64 mg/L
same,MBD S/NS,"isolate 374, Sweden, VIM",NS (NS = MIC >2 mg/L)
same,MICBMD,"isolate 374, Sweden, VIM",8 mg/L
same,MBD S/NS,"isolate 3354, Australia",S (S = MIC ≤2 mg/L)
same,MICBMD,"isolate 3354, Australia",≤0.25 mg/L
same,MBD S/NS,"isolate 10924, Sweden, KPC",S (S = MIC ≤2 mg/L)
same,MICBMD,"isolate 10924, Sweden, KPC",≤0.25 mg/L
same,MBD S/NS,"isolate 18397, Australia",S (S = MIC ≤2 mg/L)
same,MICBMD,"isolate 18397, Australia",≤0.25 mg/L
same,MBD S/NS,"isolate 43288, Australia",S (S = MIC ≤2 mg/L)
same,MICBMD,"isolate 43288, Australia",≤0.25 mg/L
same,MBD S/NS,"isolate 43292, Australia",S (S = MIC ≤2 mg/L)
same,MICBMD,"isolate 43292, Australia",≤0.25 mg/L
same,MBD S/NS,"isolate 43358, Australia",S (S = MIC ≤2 mg/L)
same,MICBMD,"isolate 43358, Australia",≤0.25 mg/L
same,MBD S/NS,"isolate 43854, Australia",S (S = MIC ≤2 mg/L)
same,MICBMD,"isolate 43854, Australia",≤0.25 mg/L
same,MBD S/NS,"isolate 44271, Australia",S (S = MIC ≤2 mg/L)
same,MICBMD,"isolate 44271, Australia",0.5 mg/L
same,MBD S/NS,"isolate 51575, Sweden, ESBL",S (S = MIC ≤2 mg/L)
same,MICBMD,"isolate 51575, Sweden, ESBL",≤0.25 mg/L
same,MBD S/NS,"isolate 70708, Sweden, KPC",NS (NS = MIC >2 mg/L)
same,MICBMD,"isolate 70708, Sweden, KPC",32 mg/L
same,MBD S/NS,"isolate 71076, Sweden, KPC",NS (NS = MIC >2 mg/L)
same,MICBMD,"isolate 71076, Sweden, KPC",32 mg/L
same,MBD S/NS,"isolate 200822, Sweden, KPC",NS (NS = MIC >2 mg/L)
same,MICBMD,"isolate 200822, Sweden, KPC",16 mg/L
same,MBD S/NS,"isolate 270902, England",S (S = MIC ≤2 mg/L)
same,MICBMD,"isolate 270902, England",0.5 mg/L
same,MBD S/NS,"isolate 500638, Sweden, pAmpC",NS (NS = MIC >2 mg/L)
same,MICBMD,"isolate 500638, Sweden, pAmpC",4 mg/L
same,MBD S/NS,"isolate 515870, Sweden, ESBL",S (S = MIC ≤2 mg/L)
same,MICBMD,"isolate 515870, Sweden, ESBL",≤0.25 mg/L
same,MBD S/NS,"isolate 2440606, England",S (S = MIC ≤2 mg/L)
same,MICBMD,"isolate 2440606, England",≤0.25 mg/L
same,MBD S/NS,"isolate 2880622, England",S (S = MIC ≤2 mg/L)
same,MICBMD,"isolate 2880622, England",≤0.25 mg/L
same,MBD S/NS,"isolate 2880654, England, KPC",NS (NS = MIC >2 mg/L)
same,MICBMD,"isolate 2880654, England, KPC",64 mg/L
same,MBD S/NS,"isolate 2890369, England",S (S = MIC ≤2 mg/L)
same,MICBMD,"isolate 2890369, England",≤0.25 mg/L
same,MBD S/NS,"isolate 2980639, England",S (S = MIC ≤2 mg/L)
same,MICBMD,"isolate 2980639, England",≤0.25 mg/L
same,MBD S/NS,[9],NS (NS = MIC >2 mg/L)
same,MICBMD,[9],32 mg/L
same,MBD S/NS,[10],S (S = MIC ≤2 mg/L)
same,MICBMD,[10],0.5 mg/L
same,MBD S/NS,"isolate 3080800, England, KPC",NS (NS = MIC >2 mg/L)
same,MICBMD,"isolate 3080800, England, KPC",256 mg/L
same,MBD S/NS,"isolate A1, Norway",S (S = MIC ≤2 mg/L)
same,MICBMD,"isolate A1, Norway",≤0.25 mg/L
same,MBD S/NS,"isolate A2, Norway",S (S = MIC ≤2 mg/L)
same,MICBMD,"isolate A2, Norway",≤0.25 mg/L
same,MBD S/NS,"isolate A3, Norway",S (S = MIC ≤2 mg/L)
same,MICBMD,"isolate A3, Norway",≤0.25 mg/L
same,MBD S/NS,"isolate A4, Norway",S (S = MIC ≤2 mg/L)
same,MICBMD,"isolate A4, Norway",≤0.25 mg/L
same,MBD S/NS,"isolate A7, Norway",S (S = MIC ≤2 mg/L)
same,MICBMD,"isolate A7, Norway",≤0.25 mg/L
same,MBD S/NS,"isolate A13, Norway",S (S = MIC ≤2 mg/L)
same,MICBMD,"isolate A13, Norway",≤0.25 mg/L
same,MBD S/NS,"isolate A15, Norway",S (S = MIC ≤2 mg/L)
same,MICBMD,"isolate A15, Norway",≤0.25 mg/L
same,MBD S/NS,"isolate A16, Norway",S (S = MIC ≤2 mg/L)
same,MICBMD,"isolate A16, Norway",≤0.25 mg/L
same,MBD S/NS,"isolate A20, Norway, NDM-1",NS (NS = MIC >2 mg/L)
same,MICBMD,"isolate A20, Norway, NDM-1",16 mg/L
same,MBD S/NS,"isolate ATCC 700603, USA",S (S = MIC ≤2 mg/L)
same,MICBMD,"isolate ATCC 700603, USA",≤0.25 mg/L
same,MBD S/NS,[11],NS (NS = MIC >2 mg/L)
same,MICBMD,[11],16 mg/L
same,MBD S/NS,"isolate ATCC BAA 1706, USA",S (S = MIC ≤2 mg/L)
same,MICBMD,"isolate ATCC BAA 1706, USA",≤0.25 mg/L
same,MBD S/NS,"isolate K1, Australia, OXA-181",NS (NS = MIC >2 mg/L)
same,MICBMD,"isolate K1, Australia, OXA-181",64 mg/L
same,MBD S/NS,"isolate K2, Australia, OXA-181",NS (NS = MIC >2 mg/L)
same,MICBMD,"isolate K2, Australia, OXA-181",32 mg/L
same,MBD S/NS,"isolate K8, Australia, NDM-1",NS (NS = MIC >2 mg/L)
same,MICBMD,"isolate K8, Australia, NDM-1",>256 mg/L
same,MBD S/NS,"isolate K14, Australia, KPC",NS (NS = MIC >2 mg/L)
same,MICBMD,"isolate K14, Australia, KPC",>256 mg/L
same,MBD S/NS,[12],NS (NS = MIC >2 mg/L)
same,MICBMD,[12],16 mg/L
same,MBD S/NS,[13],S (S = MIC ≤2 mg/L)
same,MICBMD,[13],2 mg/L
same,MBD S/NS,[14],NS (NS = MIC >2 mg/L)
same,MICBMD,[14],4 mg/L
same,MBD S/NS,"isolate KS2, Sri Lanka, OXA-181",NS (NS = MIC >2 mg/L)
same,MBD S/NS,[15],NS (NS = MIC >2 mg/L)
same,MICBMD,[15],64 mg/L
same,MBD S/NS,"isolate KS23, Sri Lanka, OXA-181",NS (NS = MIC >2 mg/L)
same,MBD S/NS,"isolate N17, Sweden, NDM-1",NS (NS = MIC >2 mg/L)
same,MICBMD,"isolate N17, Sweden, NDM-1",32 mg/L
